Tests used:
[1] = (§1) Pharmacokinetic parameters for Sildernafil following oral administration of Sildernafil citrate tablets (Viagra).; assay type: ADME, organism-based; conditions: human, in vivo, dosed compound id 36, dosed compound name SILDERNAFIL CITRATE, tissue Plasma
[2] = system: Homo sapiens; assay: as §1; assay type: ADME, organism-based; conditions: in vivo, po, dosed compound id 36, dosed compound name SILDERNAFIL CITRATE, tissue Plasma

## CCCc1nn(C)c2c(=O)[nH]c(-c3cc(S(=O)(=O)N4CCN(C)CC4)ccc3OCC)nc12.O=C(O)CC(O)(CC(=O)O)C(=O)O [SILDENAFIL CITRATE]
[1]; dietary status Fasting
  Tmax: 1 h
[1]
  bioavailability: 41%
[2]
  Vss: 105 L
